Patent US20100144733A1, “Compounds, compositions and methods comprising heteroaromatic derivatives” (Institute for OneWorld Health, priority 2008, published 2010)

Experiments:
[1] = target: T1, CHO-CFTR cell line (Homo sapiens, UniProt P13569); assay: CHO-CFTR assay (FLIPR assay, same conditions as the T84 assay); assay type: cell-based; settings: imidazole and triazole-containing compounds
T1 construct: expressed in transfected cells; host or cells: CHO (CHO-CFTR cell line)

[2] = target: T2, CFTR (Homo sapiens, UniProt P13569); assay: T84 assay (FLIPR membrane potential dye, forskolin/IBMX-stimulated CFTR channel activity); assay type: cell-based; settings: oxadiazole-containing compounds (a series), average of at least 2 runs unless annotated n = 1, read-out: IC50
T2 construct: endogenous in cells; host or cells: T84 human colonic cells (ECACC)
T2 sequence (P13569 whole entry): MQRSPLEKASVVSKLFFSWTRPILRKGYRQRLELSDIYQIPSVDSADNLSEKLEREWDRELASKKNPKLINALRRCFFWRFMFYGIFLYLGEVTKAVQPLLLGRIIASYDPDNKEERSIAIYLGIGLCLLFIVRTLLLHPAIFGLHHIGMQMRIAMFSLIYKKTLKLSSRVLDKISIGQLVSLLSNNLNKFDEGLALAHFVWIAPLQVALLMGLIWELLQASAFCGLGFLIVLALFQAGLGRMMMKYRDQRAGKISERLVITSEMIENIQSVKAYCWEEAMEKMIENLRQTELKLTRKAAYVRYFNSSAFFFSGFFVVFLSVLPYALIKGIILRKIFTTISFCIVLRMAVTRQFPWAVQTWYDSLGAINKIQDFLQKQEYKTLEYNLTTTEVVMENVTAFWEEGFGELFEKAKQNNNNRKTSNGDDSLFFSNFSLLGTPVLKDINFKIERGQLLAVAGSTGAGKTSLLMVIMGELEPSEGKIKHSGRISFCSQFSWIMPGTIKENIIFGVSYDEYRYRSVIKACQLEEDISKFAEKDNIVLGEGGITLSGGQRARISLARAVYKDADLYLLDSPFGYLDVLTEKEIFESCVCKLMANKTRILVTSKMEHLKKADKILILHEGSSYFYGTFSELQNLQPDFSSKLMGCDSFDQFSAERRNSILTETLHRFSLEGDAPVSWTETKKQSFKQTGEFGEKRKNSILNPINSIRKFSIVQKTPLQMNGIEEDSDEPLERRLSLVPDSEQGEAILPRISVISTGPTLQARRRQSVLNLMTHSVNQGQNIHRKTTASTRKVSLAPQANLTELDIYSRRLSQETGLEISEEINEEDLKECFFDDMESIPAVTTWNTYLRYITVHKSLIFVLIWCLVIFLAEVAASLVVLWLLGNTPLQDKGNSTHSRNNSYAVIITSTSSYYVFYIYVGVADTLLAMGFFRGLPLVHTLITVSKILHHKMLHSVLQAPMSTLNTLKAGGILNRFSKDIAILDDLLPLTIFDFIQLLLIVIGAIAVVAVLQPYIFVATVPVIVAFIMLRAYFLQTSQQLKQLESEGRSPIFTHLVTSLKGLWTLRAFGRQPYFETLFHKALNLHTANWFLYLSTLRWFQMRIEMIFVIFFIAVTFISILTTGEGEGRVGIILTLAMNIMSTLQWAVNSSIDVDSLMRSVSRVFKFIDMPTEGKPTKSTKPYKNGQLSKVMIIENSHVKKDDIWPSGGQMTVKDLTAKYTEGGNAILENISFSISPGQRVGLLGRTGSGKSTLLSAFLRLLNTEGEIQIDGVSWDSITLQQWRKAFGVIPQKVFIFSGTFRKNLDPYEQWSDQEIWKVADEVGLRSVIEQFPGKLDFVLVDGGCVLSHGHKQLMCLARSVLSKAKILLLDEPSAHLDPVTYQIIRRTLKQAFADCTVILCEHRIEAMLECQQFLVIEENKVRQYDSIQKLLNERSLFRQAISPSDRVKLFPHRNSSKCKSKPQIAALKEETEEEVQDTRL
In short: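 Fluorescence from a membrane potential dye in T84 monolayers (HBSS with 10 mM Hepes) is followed each second for 150 s. Cells are exposed to test compound during the 45 min dye loading, then challenged with forskolin (10 μM) and IBMX (100 μM) to open CFTR. Inhibitors suppress the depolarization-driven fluorescence increase.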

T1 sequence (P13569 whole entry): as above

SMILES | IC50 [1] | IC50 [2]
O=C(NCc1ccc(Oc2cc(C(F)(F)F)cc(C(F)(F)F)c2)cc1)c1ncn(-c2cc(Cl)c(O)c(Cl)c2)n1 [62i, N-(4-(3,5-bis(trifluoromethyl)phenoxy)benzyl)-1-(3,5-dichloro-4-hydroxyphenyl)-1H-1,2,4-triazole-3-carboxamide] | 8.76 µM | 
CN(C)c1cccc(Oc2ccc(CNC(=O)c3ncn(-c4cc(Cl)c(O)c(Cl)c4)n3)cc2)c1 [64i, 1-(3,5-dichloro-4-hydroxyphenyl)-N-(4-(3-(dimethylamino)phenoxy)benzyl)-1H-1,2,4-triazole-3-carboxamide] | 4.81 µM | 
CN(Cc1ccc(-c2ccc(C(F)(F)F)cn2)cc1)C(=O)c1nc(-c2cc(Cl)c(O)c(Cl)c2)no1 [174a, 3-(3,5-dichloro-4-hydroxyphenyl)-N-methyl-N-(4-(5-(trifluoromethyl)pyridin-2-yl)benzyl)-1,2,4-oxadiazole-5-carboxamide] |  | 8.07 µM
CN(Cc1cccc(-c2ccncc2)c1)C(=O)c1nc(-c2cc(Cl)c(O)c(Cl)c2)no1 [175a, 3-(3,5-dichloro-4-hydroxyphenyl)-N-methyl-N-(3-(pyridin-4-yl)benzyl)-1,2,4-oxadiazole-5-carboxamide] |  | 6.78 µM
CN(Cc1cccc(-c2ncccn2)c1)C(=O)c1nc(-c2cc(Cl)c(O)c(Cl)c2)no1 [176a, 3-(3,5-dichloro-4-hydroxyphenyl)-N-methyl-N-(3-(pyrimidin-2-yl)benzyl)-1,2,4-oxadiazole-5-carboxamide] |  | 24.6 µM
CN(Cc1cccc(-c2cncnc2)c1)C(=O)c1nc(-c2cc(Cl)c(O)c(Cl)c2)no1 [177a, 3-(3,5-dichloro-4-hydroxyphenyl)-N-methyl-N-(3-(pyrimidin-5-yl)benzyl)-1,2,4-oxadiazole-5-carboxamide] |  | 16.3 µM
CN(Cc1cccc(Oc2ccccn2)c1)C(=O)c1nc(-c2cc(Cl)c(O)c(Cl)c2)no1 [178a, 3-(3,5-dichloro-4-hydroxyphenyl)-N-methyl-N-(3-(pyridin-2-yloxy)benzyl)-1,2,4-oxadiazole-5-carboxamide] |  | 7.94 µM
O=C(NCc1ccc(Oc2cccc(Cl)c2)cc1)c1nc(-c2cc(Cl)c(O)c(Cl)c2)no1 [179a, N-(4-(3-chlorophenoxy)benzyl)-3-(3,5-dichloro-4-hydroxyphenyl)-1,2,4-oxadiazole-5-carboxamide] |  | 10.7 µM
CC(C)Oc1ccc(Oc2ccc(CNC(=O)c3nc(-c4cc(Cl)c(O)c(Cl)c4)no3)cc2)cc1Cl [180a, N-(4-(3-chloro-4-isopropoxyphenoxy)benzyl)-3-(3,5-dichloro-4-hydroxyphenyl)-1,2,4-oxadiazole-5-carboxamide] |  | 10.3 µM
O=C(NCc1ccc(Oc2ccc(OC(F)(F)F)cc2)cc1)c1nc(-c2cc(Cl)c(O)c(Cl)c2)no1 [181a, 3-(3,5-dichloro-4-hydroxyphenyl)-N-(4-(4-(trifluoromethoxy)phenoxy)benzyl)-1,2,4-oxadiazole-5-carboxamide] |  | 18.7 µM
O=C(NCc1ccc(Oc2ccc(Br)cc2)cc1)c1nc(-c2cc(Cl)c(O)c(Cl)c2)no1 [182a, N-(4-(4-bromophenoxy)benzyl)-3-(3,5-dichloro-4-hydroxyphenyl)-1,2,4-oxadiazole-5-carboxamide] |  | 8.03 µM
COc1ccc(Oc2ccc(CNC(=O)c3nc(-c4cc(Cl)c(O)c(Cl)c4)no3)cc2)cc1F [183a, 3-(3,5-dichloro-4-hydroxyphenyl)-N-(4-(3-fluoro-4-methoxyphenoxy)benzyl)-1,2,4-oxadiazole-5-carboxamide] |  | 11.7 µM
CCOc1ccc(Oc2ccc(CNC(=O)c3nc(-c4cc(Cl)c(O)c(Cl)c4)no3)cc2)cc1Cl [184a, N-(4-(3-chloro-4-ethoxyphenoxy)benzyl)-3-(3,5-dichloro-4-hydroxyphenyl)-1,2,4-oxadiazole-5-carboxamide] |  | 13.6 µM
CN(Cc1cccc(-c2cccnc2)c1)C(=O)c1nc(-c2cc(Cl)c(O)c(Cl)c2)no1 [185a, 3-(3,5-dichloro-4-hydroxyphenyl)-N-methyl-N-(3-(pyridin-3-yl)benzyl)-1,2,4-oxadiazole-5-carboxamide] |  | 5.11 µM
CN(Cc1ccc(-c2ccccn2)cc1)C(=O)c1nc(-c2cc(Cl)c(O)c(Cl)c2)no1 [186a, 3-(3,5-dichloro-4-hydroxyphenyl)-N-methyl-N-(4-(pyridin-2-yl)benzyl)-1,2,4-oxadiazole-5-carboxamide] |  | 5.66 µM
CN(Cc1ccc(N2CCOCC2)cc1)C(=O)c1nc(-c2cc(Cl)c(O)c(Cl)c2)no1 [187a, 3-(3,5-dichloro-4-hydroxyphenyl)-N-methyl-N-(4-morpholinobenzyl)-1,2,4-oxadiazole-5-carboxamide] |  | 24.4 µM
CN(Cc1ccc(-c2cncnc2)cc1)C(=O)c1nc(-c2cc(Cl)c(O)c(Cl)c2)no1 [188a, 3-(3,5-dichloro-4-hydroxyphenyl)-N-methyl-N-(4-(pyrimidin-5-yl)benzyl)-1,2,4-oxadiazole-5-carboxamide] |  | 5.81 µM

SMILES | IC50 [1] | IC50 [2]
CN(Cc1ccc(-c2ncccn2)cc1)C(=O)c1nc(-c2cc(Cl)c(O)c(Cl)c2)no1 [189a, 3-(3,5-dichloro-4-hydroxyphenyl)-N-methyl-N-(4-(pyrimidin-2-yl)benzyl)-1,2,4-oxadiazole-5-carboxamide] |  | 16.9 µM
O=C(NCc1ccc(Oc2cccc(OC(F)(F)F)c2)cc1)c1nc(-c2cc(Cl)c(O)c(Cl)c2)no1 [190a, 3-(3,5-dichloro-4-hydroxyphenyl)-N-(4-(3-(trifluoromethoxy)phenoxy)benzyl)-1,2,4-oxadiazole-5-carboxamide] |  | 11 µM
COc1cc(Oc2ccc(CNC(=O)c3nc(-c4cc(Cl)c(O)c(Cl)c4)no3)cc2)ccc1F [191a, 3-(3,5-dichloro-4-hydroxyphenyl)-N-(4-(4-fluoro-3-methoxyphenoxy)benzyl)-1,2,4-oxadiazole-5-carboxamide] |  | 8.85 µM
CC(C)(C)c1ccc(Oc2ccc(CNC(=O)c3nc(-c4cc(Cl)c(O)c(Cl)c4)no3)cc2)cc1 [192a, N-(4-(4-tert-butylphenoxy)benzyl)-3-(3,5-dichloro-4-hydroxyphenyl)-1,2,4-oxadiazole-5-carboxamide] |  | 17.6 µM
Cc1ccc(Oc2ccc(CNC(=O)c3nc(-c4cc(Cl)c(O)c(Cl)c4)no3)cc2)cc1Cl [193a, N-(4-(3-chloro-4-methylphenoxy)benzyl)-3-(3,5-dichloro-4-hydroxyphenyl)-1,2,4-oxadiazole-5-carboxamide] |  | 13.6 µM
O=C(NCc1ccc(Oc2cccc(F)c2)cc1)c1nc(-c2cc(Cl)c(O)c(Cl)c2)no1 [194a, 3-(3,5-dichloro-4-hydroxyphenyl)-N-(4-(3-fluorophenoxy)benzyl)-1,2,4-oxadiazole-5-carboxamide] |  | 10 µM
COc1ccc(Oc2ccc(CNC(=O)c3nc(-c4cc(Cl)c(O)c(Cl)c4)no3)cc2)cc1Cl [195a, N-(4-(3-chloro-4-methoxyphenoxy)benzyl)-3-(3,5-dichloro-4-hydroxyphenyl)-1,2,4-oxadiazole-5-carboxamide] |  | 8.92 µM
O=C(NCc1ccc(Oc2cc(Cl)cc(Cl)c2)cc1)c1nc(-c2cc(Cl)c(O)c(Cl)c2)no1 [196a, 3-(3,5-dichloro-4-hydroxyphenyl)-N-(4-(3,5-dichlorophenoxy)benzyl)-1,2,4-oxadiazole-5-carboxamide] |  | 16.2 µM
CN(C)c1ccc(Oc2ccc(CNC(=O)c3nc(-c4cc(Cl)c(O)c(Cl)c4)no3)cc2)cc1 [197a, 3-(3,5-dichloro-4-hydroxyphenyl)-N-(4-(4-(dimethylamino)phenoxy)benzyl)-1,2,4-oxadiazole-5-carboxamide] |  | 7.76 µM
O=C(NCc1ccc(Oc2ccc(C(F)(F)F)cc2)cc1)c1nc(-c2cc(Cl)c(O)c(Cl)c2)no1 [198a, 3-(3,5-dichloro-4-hydroxyphenyl)-N-(4-(4-(trifluoromethyl)phenoxy)benzyl)-1,2,4-oxadiazole-5-carboxamide] |  | 19.6 µM
CN(C)c1cccc(Oc2ccc(CNC(=O)c3nc(-c4cc(Cl)c(O)c(Cl)c4)no3)cc2)c1 [199a, 3-(3,5-dichloro-4-hydroxyphenyl)-N-(4-(3-(dimethylamino)phenoxy)benzyl)-1,2,4-oxadiazole-5-carboxamide] |  | 12.2 µM
O=C(NCc1ccc(Oc2ccc(F)c(C(F)(F)F)c2)cc1)c1nc(-c2cc(Cl)c(O)c(Cl)c2)no1 [200a, 3-(3,5-Dichloro-4-hydroxyphenyl)-N-(4-(4-fluoro-3-(trifluoromethyl)phenoxy)benzyl)-1,2,4-oxadiazole-5-carboxamide] |  | 13.2 µM
O=C(NCc1ccc(Oc2cc(F)cc(Br)c2)cc1)c1nc(-c2cc(Cl)c(O)c(Cl)c2)no1 [201a, N-(4-(3-bromo-5-fluorophenoxy)benzyl)-3-(3,5-dichloro-4-hydroxyphenyl)-1,2,4-oxadiazole-5-carboxamide] |  | 17.9 µM
O=C(NCc1ccc(Oc2ccc(Cl)c(C(F)(F)F)c2)cc1)c1nc(-c2cc(Cl)c(O)c(Cl)c2)no1 [202a, N-(4-(4-chloro-3-(trifluoromethyl)phenoxy)benzyl)-3-(3,5-dichloro-4-hydroxyphenyl)-1,2,4-oxadiazole-5-carboxamide] |  | 23.3 µM
O=C(c1nc(-c2cc(Br)c(O)c(Br)c2)no1)N1CCC(C(O)(c2ccccc2)c2ccccc2)CC1 [203a, (3-(3,5-dibromo-4-hydroxyphenyl)-1,2,4-oxadiazol-5-yl)(4-(hydroxydiphenylmethyl)piperidin-1-yl)methanone] |  | 25.9 µM
O=C(c1nc(-c2cc(Cl)c(O)c(Cl)c2)no1)N1CCC(Cc2ccccc2)CC1 [204a, (4-benzylpiperidin-1-yl)(3-(3,5-dichloro-4-hydroxyphenyl)-1,2,4-oxadiazol-5-yl)methanone] |  | 8.99 µM
CC(C)(C)ONC(=O)COc1c(Br)cc(-c2noc(C(=O)N3CCC(Cc4ccccc4)CC3)n2)cc1Br [205a, 2-(4-(5-(4-benzylpiperidine-1-carbonyl)-1,2,4-oxadiazol-3-yl)-2,6-dibromophenoxy)-N-tert-butoxyacetamide] |  | 23.1 µM
